{"source": "paper PMC5719402", "about": "“Protein-Structure Assisted Optimization of 4,5-Dihydroxypyrimidine-6-Carboxamide Inhibitors of Influenza Virus Endonuclease” (Scientific Reports, 2017)", "data": [{"tested_on": "influenza virus A/Puerto Rico/8/34 (H1N1)", "test": "microbe, parasite or virus in culture", "type": "cell-based", "conditions": "H1N1, MDCK, read-out: plaque IC50", "units": {"IC50": "µM"}, "values": [{"smiles": "COc1ccc(S(=O)(=O)CCNC(=O)c2nc([C@@H]3CCCN3C(=O)CSc3ccccc3Cl)[nH]c(=O)c2O)cc1", "note": "[Compound 10g]", "IC50": 9.1}, {"smiles": "O=C(NCCOc1ccccc1)c1nc([C@@H]2CCCN2C(=O)CSc2ccccc2Cl)[nH]c(=O)c1O", "note": "[Compound 9k]", "IC50": 7.2}, {"smiles": "O=C(NCCOc1ccccc1)c1nc([C@@H]2CCCN2C(=O)CCc2ccccc2Cl)[nH]c(=O)c1O", "note": "[Compound 9b]", "IC50": 6.6}]}, {"target": "wild type PAN protein (PA endonuclease domain) (Influenza A virus, UniProt C3W5S0)", "test": "biochemical", "type": "binding", "conditions": "FP Ki", "units": {"Ki": "µM"}, "values": [{"smiles": "O=C(NCCOc1ccccc1)c1nc([C@@H]2CCCN2C(=O)COc2ccccc2F)[nH]c(=O)c1O", "note": "[Compound 9h]", "Ki": "0.44 ± 0.03"}, {"smiles": "O=C(NC1Cc2ccccc2C1)c1nc([C@@H]2CCCN2C(=O)COc2ccccc2Cl)[nH]c(=O)c1O", "note": "[Compound 10h]", "Ki": "0.47 ± 0.07"}, {"smiles": "O=C(NCC1Cc2ccccc2C1)c1nc([C@@H]2CCCN2C(=O)c2c(Cl)cncc2Cl)[nH]c(=O)c1O", "note": "[Compound 8h]", "Ki": "0.1 ± 0.03"}, {"smiles": "O=C(NCCS(=O)(=O)c1ccccc1)c1nc([C@@H]2CCCN2C(=O)COc2ccccc2Cl)[nH]c(=O)c1O", "note": "[Compound 10d]", "Ki": "0.046 ± 0.001"}, {"smiles": "O=C(NCCc1ccccc1)c1nc([C@@H]2CCCN2C(=O)CCc2ccccc2F)[nH]c(=O)c1O", "note": "[Compound 9c]", "Ki": "3.7 ± 0.8"}, {"smiles": "O=C(NCCSc1ccccc1)c1nc([C@@H]2CCCN2C(=O)COc2ccccc2Cl)[nH]c(=O)c1O", "note": "[Compound 10a]", "Ki": "0.56 ± 0.02"}, {"smiles": "O=C(NCCc1ccccc1)c1nc([C@@H]2CCCN2C(=O)C[S+]([O-])c2ccccc2Cl)[nH]c(=O)c1O", "note": "(stereo partly shown) [Compound 9j]", "Ki": "0.4 ± 0.07"}, {"smiles": "COCCNC(=O)c1nc([C@@H]2CCCN2C(=O)COc2ccccc2)[nH]c(=O)c1O", "note": "[Compound 6e]", "Ki": 1.6}, {"smiles": "Cn1c([C@@H]2CCCN2C(=O)c2c(Cl)cncc2Cl)nc(C(=O)NCCc2ccccc2)c(O)c1=O", "note": "[Compound 8b]", "Ki": "0.07 ± 0.02"}, {"smiles": "COc1ccc(S(=O)(=O)CCNC(=O)c2nc([C@@H]3CCCN3C(=O)COc3ccccc3Cl)[nH]c(=O)c2O)cc1", "note": "[Compound 10f]", "Ki": "0.038 ± 0.009"}, {"smiles": "O=C(NCCc1cccc(C(F)(F)F)c1)c1nc([C@@H]2CCCN2C(=O)c2c(Cl)cncc2Cl)[nH]c(=O)c1O", "note": "[Compound 8c]", "Ki": "0.1 ± 0.03"}, {"smiles": "O=C(NCc1cc2ccccc2o1)c1nc([C@@H]2CCCN2C(=O)CSc2ccccc2Cl)[nH]c(=O)c1O", "note": "[Compound 10l]", "Ki": "1 ± 0.2"}, {"smiles": "O=C(NCCc1ccncc1)c1nc([C@@H]2CCCN2C(=O)COc2ccccc2F)[nH]c(=O)c1O", "note": "[Compound 10n]", "Ki": "0.256 ± 0.007"}, {"smiles": "O=C(NCC[S+]([O-])c1ccccc1)c1nc([C@@H]2CCCN2C(=O)COc2ccccc2Cl)[nH]c(=O)c1O", "note": "(stereo partly shown) [Compound 10c]", "Ki": "0.2 ± 0.03"}, {"smiles": "O=C(NCCc1ccccc1)c1nc([C@@H]2CCCN2C(=O)c2ccnc(Cl)c2)[nH]c(=O)c1O", "note": "[Compound 7e]", "Ki": "17.5 ± 1.1"}, {"smiles": "O=C(NCCc1ccccc1)c1nc([C@@H]2CCCN2C(=O)CSc2ccccc2Cl)[nH]c(=O)c1O", "note": "[Compound 9i]", "Ki": "0.29 ± 0.04"}, {"smiles": "O=C(NCCOc1ccccc1)c1nc([C@@H]2CCCN2C(=O)CCc2ccccc2F)[nH]c(=O)c1O", "note": "[Compound 9d]", "Ki": "0.5 ± 0.1"}, {"smiles": "O=C(NCCc1ccccc1)c1nc([C@@H]2CCCN2C(=O)CCc2ccccc2Cl)[nH]c(=O)c1O", "note": "[Compound 9a]", "Ki": "1.2 ± 0.2"}, {"smiles": "O=C(NCc1cccc(C(F)(F)F)c1)c1nc([C@@H]2CCCN2C(=O)c2c(Cl)cncc2Cl)[nH]c(=O)c1O", "note": "[Compound 8a]", "Ki": "0.16 ± 0.04"}, {"smiles": "O=C(NCCc1ccccc1)c1nc([C@@H]2CCCN2C(=O)CSc2ccccc2F)[nH]c(=O)c1O", "note": "[Compound 9l]", "Ki": "1.2 ± 0.1"}, {"smiles": "O=C(NCCc1ccccc1)c1nc([C@@H]2CCCN2C(=O)COc2ccccc2F)[nH]c(=O)c1O", "note": "[Compound 9g]", "Ki": "1.3 ± 0.4"}, {"smiles": "O=C(NCCOc1ccccc1)c1nc([C@@H]2CCCN2C(=O)c2c(Cl)cncc2Cl)[nH]c(=O)c1O", "note": "[Compound 8d]", "Ki": "0.05 ± 0.02"}, {"smiles": "O=C(NCCOc1ccccc1)c1nc([C@@H]2CCCN2C(=O)CSc2ccccc2F)[nH]c(=O)c1O", "note": "[Compound 9m]", "Ki": "0.24 ± 0.03"}, {"smiles": "Cn1c([C@@H]2CCCN2C(=O)c2c(Cl)cncc2Cl)nc(C(=O)NC2Cc3ccccc3C2)c(O)c1=O", "note": "[Compound 8g]", "Ki": "1.7 ± 0.1"}, {"smiles": "O=C(NCCc1ccccc1)c1nc([C@@H]2CCCN2C(=O)c2cc(Cl)ncc2Cl)[nH]c(=O)c1O", "note": "[Compound 7d]", "Ki": "0.1 ± 0.02"}]}, {"target": "wild type PAN protein (PA endonuclease domain) (Influenza A virus, UniProt C3W5S0)", "test": "biochemical", "type": "binding", "conditions": "WT FP Ki", "units": {"Ki": "µM"}, "values": [{"smiles": "O=C(NCCOc1ccccc1)c1nc([C@@H]2CCCN2C(=O)COc2ccccc2Cl)[nH]c(=O)c1O", "note": "[Compound 9f]", "Ki": "0.5 ± 0.2"}, {"smiles": "O=C(NCCc1ccccn1)c1nc([C@@H]2CCCN2C(=O)COc2ccccc2F)[nH]c(=O)c1O", "note": "[Compound 10m]", "Ki": "0.4 ± 0.2"}]}, {"target": "wild type PAN protein (PA endonuclease domain) (Influenza A virus, UniProt C3W5S0)", "test": "biochemical", "type": "binding", "conditions": "read-out: WT FP Ki", "units": {"Ki": "µM"}, "values": [{"smiles": "O=C(O)C(=O)CC(=O)c1ccccc1", "note": "[DPBA, reference compound]", "Ki": "3.7 ± 0.5"}]}]}
